Target: T1, GIRK2 (Homo sapiens, UniProt P48051)
T1 construct: gene KCNJ6; homotetramer GIRK2
T1 sequence (P48051 1-423): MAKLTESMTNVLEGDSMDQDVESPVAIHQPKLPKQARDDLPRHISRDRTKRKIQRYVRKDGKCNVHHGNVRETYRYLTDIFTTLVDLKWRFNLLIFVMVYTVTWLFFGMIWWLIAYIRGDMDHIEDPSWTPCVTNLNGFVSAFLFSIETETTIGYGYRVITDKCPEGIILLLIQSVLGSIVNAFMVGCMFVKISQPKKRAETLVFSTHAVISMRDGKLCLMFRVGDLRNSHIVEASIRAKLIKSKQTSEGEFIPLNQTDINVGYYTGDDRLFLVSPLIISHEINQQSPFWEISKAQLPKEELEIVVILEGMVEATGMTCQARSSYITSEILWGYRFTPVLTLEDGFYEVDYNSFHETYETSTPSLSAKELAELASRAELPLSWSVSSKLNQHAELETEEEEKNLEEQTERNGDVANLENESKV
Assay: two-electrode voltage clamp in Xenopus oocytes expressing homotetrameric GIRK2, single concentration […]
Assay type: cell-based
Conditions: read-out: % reduction in inward K+ currents at 10 μM

Cc1c(C(=O)c2cccc3ccccc23)c2cccc3c2n1[C@H](CN1CCOCC1)CO3 [WIN55,212-2]
inhibition at 10 µM: 8.91 ± 1.68%

Source: publication PMC8146939 (Biomedicines, 2021)
